Assay results from patent publication US8168592B2 (Amgen Inc., priority 2005, dated 2012).
Square brackets hold non-standard residues; d marks the D form. Peptide text beside a SMILES is read from it. Cit = NC(=O)NCCC[C@H](N)C(=O)O

biological target: T1, CGRP1 receptor (Homo sapiens, UniProt O60894+Q16602); experiment: in vitro CGRP1 receptor mediated cAMP assay in SK-N-MC cells; assay type: cell-based; details: Table 2A; read-out: IC50
T1 construct: SK-N-MC cells express CRLR and RAMP1, which form CGRP1 receptor; endogenous in cells; host or cells: SK-N-MC human neuroblastoma cells
Summary of the method: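 Intracellular cAMP served as the Gs-coupled CGRP1 readout in endogenously expressing SK-N-MC cells. After a 15-minute room-temperature step in plasma-free medium, cell lysates (30 minutes, 37° C) went into a competitive ELISA with a cAMP-AP conjugate and anti-cAMP antibody for 1 hour, then a 30-minute substrate enhancer step before reading.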

T1 sequence (Q16602 23-461): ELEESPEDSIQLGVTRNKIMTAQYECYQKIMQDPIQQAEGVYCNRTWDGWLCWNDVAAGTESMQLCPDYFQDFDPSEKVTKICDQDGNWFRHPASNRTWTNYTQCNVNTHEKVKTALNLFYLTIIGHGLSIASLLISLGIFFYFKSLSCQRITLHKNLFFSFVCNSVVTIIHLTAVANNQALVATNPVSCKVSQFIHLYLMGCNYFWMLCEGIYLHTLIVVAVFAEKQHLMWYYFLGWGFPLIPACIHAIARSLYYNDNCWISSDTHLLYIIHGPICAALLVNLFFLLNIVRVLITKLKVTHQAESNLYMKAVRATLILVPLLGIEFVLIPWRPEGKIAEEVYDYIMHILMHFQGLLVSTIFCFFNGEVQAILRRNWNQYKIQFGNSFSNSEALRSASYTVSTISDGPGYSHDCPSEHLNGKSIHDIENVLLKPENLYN
T1 sequence (O60894 27-148): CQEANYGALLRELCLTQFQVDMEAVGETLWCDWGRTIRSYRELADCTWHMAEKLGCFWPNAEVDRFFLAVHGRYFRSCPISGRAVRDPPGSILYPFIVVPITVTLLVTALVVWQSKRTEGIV

IC50 [nM] | SMILES
3.19 to 4.42 | CC(=O)N[C@@H](Cc1c[nH]c2ccccc12)C(=O)N[C@H](C(=O)N[C@H](C(=O)N[C@@H](Cc1cnc[nH]1)C(=O)N[C@@H](CCCNC(N)=O)C(=O)N[C@@H](CC(C)C)C(=O)N[C@@H](C)C(=O)NCC(=O)N[C@@H](CC(C)C)C(=O)N[C@@H](CC(C)C)C(=O)N[C@@H](CO)C(=O)N[C@@H](CCCNC(N)=O)C(=O)N[C@@H](CO)C(=O)NCC(=O)NCC(=O)N[C@H](C(=O)N[C@H](C(=O)N[C@@H](CCCCNC(=N)N)C(=O)N[C@@H](CCCCN)C(=O)N[C@@H](CC(N)=O)C(=O)N[C@@H](Cc1ccccc1)C(=O)N[C@H](C(=O)N1CCC[C@H]1C(=O)N[C@H](C(=O)N[C@@H](CC(=O)O)C(=O)N[C@H](C(=O)NCC(=O)N(C)CC(=O)N[C@@H](Cc1ccccc1)C(=O)N[C@@H](C)C(=O)N[C@@H](Cc1ccccc1)C(N)=O)C(C)C)[C@@H](C)O)C(C)C)C(C)C)C(C)C)[C@@H](C)O)C(C)C [compound 672]

same assay, conditions: Table 2C; unconjugated peptide; read-out: Peptide IC50

SMILES | IC50 [nM]
CC(=O)N[C@@H](Cc1c[nH]c2ccccc12)C(=O)N[C@H](C(=O)N[C@H](C(=O)N[C@@H](Cc1cnc[nH]1)C(=O)N[C@@H](CCCNC(N)=O)C(=O)N[C@@H](CC(C)C)C(=O)N[C@@H](C)C(=O)NCC(=O)N[C@@H](CC(C)C)C(=O)N[C@@H](CC(C)C)C(=O)N[C@@H](CO)C(=O)N[C@@H](CCCN=C(N)N)C(=O)N[C@@H](CO)C(=O)NCC(=O)NCC(=O)N[C@H](C(=O)N[C@H](C(=O)N[C@@H](CCCN=C(N)N)C(=O)N[C@@H](CCCCN)C(=O)N[C@@H](CC(N)=O)C(=O)N[C@@H](Cc1ccccc1)C(=O)N[C@H](C(=O)N1CCC[C@H]1C(=O)N[C@H](C(=O)N[C@@H](CC(=O)O)C(=O)N[C@H](C(=O)NCC(=O)N1CCC[C@H]1C(=O)N[C@@H](Cc1ccccc1)C(=O)N[C@@H](C)C(=O)N[C@@H](Cc1ccccc1)C(N)=O)C(C)C)[C@@H](C)O)C(C)C)C(C)C)C(C)C)[C@@H](C)O)C(C)C [compound 861] | 0.57
CC(=O)N[C@@H](Cc1c[nH]c2ccccc12)C(=O)N[C@H](C(=O)N[C@H](C(=O)N[C@@H](Cc1c[nH]cn1)C(=O)N[C@@H](CCCNC(=N)N)C(=O)N[C@@H](CC(C)C)C(=O)N[C@@H](C)C(=O)NCC(=O)N[C@@H](CC(C)C)C(=O)N[C@@H](CC(C)C)C(=O)N[C@@H](CO)C(=O)N[C@@H](CCCCNC(=N)N)C(=O)N[C@@H](CO)C(=O)NCC(=O)NCC(=O)N[C@H](C(=O)N[C@H](C(=O)N[C@@H](CCCNC(=N)N)C(=O)N[C@@H](CCCCN)C(=O)N[C@@H](CC(N)=O)C(=O)N[C@@H](Cc1ccccc1)C(=O)N[C@H](C(=O)N1CCC[C@H]1C(=O)N[C@H](C(=O)N[C@@H](CC(=O)O)C(=O)N[C@H](C(=O)NCC(=O)N1CCC[C@H]1C(=O)N[C@@H](Cc1ccccc1)C(=O)N[C@@H](C)C(=O)N[C@@H](Cc1ccccc1)C(N)=O)C(C)C)[C@@H](C)O)C(C)C)C(C)C)C(C)C)[C@@H](C)O)C(C)C [compound 864] | 0.57
CC[C@H](C)[C@H](NC(=O)[C@H](CCCNC(N)=O)NC(=O)[C@H](Cc1c[nH]cn1)NC(=O)[C@@H](NC(=O)[C@@H](NC(=O)[C@H](Cc1c[nH]c2ccccc12)NC(C)=O)C(C)C)[C@@H](C)O)C(=O)N[C@@H](CC(C)C)C(=O)N[C@@H](C)C(=O)NCC(=O)N[C@@H](CC(C)C)C(=O)N[C@@H](CC(C)C)C(=O)N1CCC[C@H]1C(=O)N[C@@H](CCCNC(=N)N)C(=O)N[C@@H](CO)C(=O)NCC(=O)NCC(=O)N[C@H](C(=O)N[C@H](C(=O)N[C@@H](CCCNC(=N)N)C(=O)N[C@@H](CCCCN)C(=O)N[C@@H](CC(N)=O)C(=O)N[C@@H](Cc1ccccc1)C(=O)N[C@H](C(=O)N1CCC[C@H]1C(=O)N[C@H](C(=O)N[C@@H](CC(=O)O)C(=O)N[C@H](C(=O)NCC(=O)N1CCC[C@H]1C(=O)N[C@@H](Cc1ccccc1)C(=O)N[C@@H](C)C(=O)N[C@@H](Cc1ccccc1)C(N)=O)C(C)C)[C@@H](C)O)C(C)C)C(C)C)C(C)C [compound 867] (Ac-WVTH[Cit]ILAGLLPRSGGVVRKNFVPTDVGPFAF-NH2) | 2.31
CC(=O)N[C@@H](Cc1c[nH]c2ccccc12)C(=O)N[C@H](C(=O)N[C@H](C(=O)N[C@@H](Cc1c[nH]cn1)C(=O)N[C@@H](CCCNC(N)=O)C(=O)N[C@@H](CC(C)C)C(=O)N[C@@H](C)C(=O)NCC(=O)N[C@@H](CC(C)C)C(=O)N[C@@H](CC(C)C)C(=O)N[C@@H](CO)C(=O)N[C@@H](CCCNC(=N)N)C(=O)N1CCC[C@H]1C(=O)NCC(=O)NCC(=O)N[C@H](C(=O)N[C@H](C(=O)N[C@@H](CCCNC(=N)N)C(=O)N[C@@H](CCCCN)C(=O)N[C@@H](CC(N)=O)C(=O)N[C@@H](Cc1ccccc1)C(=O)N[C@H](C(=O)N1CCC[C@H]1C(=O)N[C@H](C(=O)N[C@@H](CC(=O)O)C(=O)N[C@H](C(=O)NCC(=O)N1CCC[C@H]1C(=O)N[C@@H](Cc1ccccc1)C(=O)N[C@@H](C)C(=O)N[C@@H](Cc1ccccc1)C(N)=O)C(C)C)[C@@H](C)O)C(C)C)C(C)C)C(C)C)[C@@H](C)O)C(C)C [compound 868] (Ac-WVTH[Cit]LAGLLSRPGGVVRKNFVPTDVGPFAF-NH2) | 3

Results, then the molecule that gave them:

IC50 [nM] | SMILES
0.58 | CC(=O)N[C@@H](Cc1c[nH]c2ccccc12)C(=O)N[C@H](C(=O)N[C@H](C(=O)N[C@@H](Cc1cnc[nH]1)C(=O)N[C@@H](CCCNC(=N)N)C(=O)N[C@@H](CC(C)C)C(=O)N[C@@H](C)C(=O)NCC(=O)N[C@@H](CC(C)C)C(=O)N[C@@H](CC(C)C)C(=O)N[C@@H](CO)C(=O)N[C@@H](CCCNC(N)=O)C(=O)N[C@@H](CO)C(=O)NCC(=O)NCC(=O)N[C@H](C(=O)N[C@H](C(=O)N[C@@H](CCCN=C(N)N)C(=O)N[C@@H](CCCCN)C(=O)N[C@@H](CC(N)=O)C(=O)N[C@@H](Cc1ccccc1)C(=O)N[C@H](C(=O)N1CCC[C@H]1C(=O)N[C@H](C(=O)N[C@@H](CC(=O)O)C(=O)N[C@H](C(=O)NCC(=O)N1CCC[C@H]1C(=O)N[C@@H](Cc1ccccc1)C(=O)N[C@@H](C)C(=O)N[C@@H](Cc1ccccc1)C(N)=O)C(C)C)[C@@H](C)O)C(C)C)C(C)C)C(C)C)[C@@H](C)O)C(C)C [compound 862]
0.44 | CC(=O)N[C@@H](Cc1c[nH]c2ccccc12)C(=O)N[C@H](C(=O)N[C@H](C(=O)N[C@@H](Cc1c[nH]cn1)C(=O)N[C@@H](CCCCNC(=N)N)C(=O)N[C@@H](CC(C)C)C(=O)N[C@@H](C)C(=O)NCC(=O)N[C@@H](CC(C)C)C(=O)N[C@@H](CC(C)C)C(=O)N[C@@H](CO)C(=O)N[C@@H](CCCNC(=N)N)C(=O)N[C@@H](CO)C(=O)NCC(=O)NCC(=O)N[C@H](C(=O)N[C@H](C(=O)N[C@@H](CCCNC(=N)N)C(=O)N[C@@H](CCCCN)C(=O)N[C@@H](CC(N)=O)C(=O)N[C@@H](Cc1ccccc1)C(=O)N[C@H](C(=O)N1CCC[C@H]1C(=O)N[C@H](C(=O)N[C@@H](CC(=O)O)C(=O)N[C@H](C(=O)NCC(=O)N1CCC[C@H]1C(=O)N[C@@H](Cc1ccccc1)C(=O)N[C@@H](C)C(=O)N[C@@H](Cc1ccccc1)C(N)=O)C(C)C)[C@@H](C)O)C(C)C)C(C)C)C(C)C)[C@@H](C)O)C(C)C [compound 865]

same assay, conditions: Table 2D; read-out: IC50

IC50 [nM] | SMILES
0.59 | CC(=O)N[C@@H](Cc1c[nH]c2ccccc12)C(=O)N[C@H](C(=O)N[C@H](C(=O)N[C@@H](Cc1c[nH]cn1)C(=O)N[C@@H](CCCNC(=N)N)C(=O)N[C@@H](CC(C)C)C(=O)N[C@@H](C)C(=O)NCC(=O)N[C@@H](CC(C)C)C(=O)N[C@@H](CC(C)C)C(=O)N[C@@H](CO)C(=O)N[C@H](CCCNC(=N)N)C(=O)N[C@@H](CO)C(=O)NCC(=O)NCC(=O)N[C@H](C(=O)N[C@H](C(=O)N[C@@H](CCCNC(=N)N)C(=O)N[C@@H](CS)C(=O)N[C@@H](CC(N)=O)C(=O)N[C@@H](Cc1ccccc1)C(=O)N[C@H](C(=O)N1CCC[C@H]1C(=O)N[C@H](C(=O)N[C@@H](CC(=O)O)C(=O)N[C@H](C(=O)NCC(=O)N1CCC[C@H]1C(=O)N[C@@H](Cc1ccccc1)C(=O)N[C@@H](C)C(=O)N[C@@H](Cc1ccccc1)C(N)=O)C(C)C)[C@@H](C)O)C(C)C)C(C)C)C(C)C)[C@@H](C)O)C(C)C [compound 776] (Ac-WVTHRLAGLLS[dR]SGGVVRCNFVPTDVGPFAF-NH2)
2.1 | CC(=O)N[C@@H](Cc1c[nH]c2ccccc12)C(=O)N[C@H](C(=O)N[C@H](C(=O)N[C@@H](Cc1cnc[nH]1)C(=O)N[C@@H](CCCCNC(=N)N)C(=O)N[C@@H](CC(C)C)C(=O)N[C@@H](C)C(=O)NCC(=O)N[C@@H](CC(C)C)C(=O)N[C@@H](CC(C)C)C(=O)N[C@@H](CO)C(=O)N[C@@H](CCCCNC(=N)N)C(=O)N[C@@H](CO)C(=O)NCC(=O)NCC(=O)N[C@H](C(=O)N[C@H](C(=O)N[C@@H](CCCNC(=N)N)C(=O)N[C@@H](CCCCN)C(=O)N[C@@H](CC(N)=O)C(=O)N[C@@H](Cc1ccccc1)C(=O)N[C@H](C(=O)N1CCC[C@H]1C(=O)N[C@H](C(=O)N[C@@H](CC(=O)O)C(=O)N[C@H](C(=O)NCC(=O)N1CCC[C@H]1C(=O)N[C@@H](Cc1ccccc1)C(=O)N[C@@H](C)C(=O)N[C@@H](Cc1ccccc1)C(N)=O)C(C)C)[C@@H](C)O)C(C)C)C(C)C)C(C)C)[C@@H](C)O)C(C)C [compound 784]
1.85 | CC(=O)N[C@@H](Cc1c[nH]c2ccccc12)C(=O)N[C@H](C(=O)N[C@H](C(=O)N[C@@H](Cc1c[nH]cn1)C(=O)N[C@@H](CCCNC(=N)N)C(=O)N[C@@H](CC(C)C)C(=O)N[C@@H](C)C(=O)NCC(=O)N[C@@H](CC(C)C)C(=O)N[C@@H](C)C(=O)N[C@@H](CO)C(=O)N[C@@H](CCCNC(N)=O)C(=O)N[C@@H](CO)C(=O)NCC(=O)NCC(=O)N[C@H](C(=O)N[C@H](C(=O)N[C@@H](CCCNC(=N)N)C(=O)N[C@@H](CCCCN)C(=O)N[C@@H](CC(N)=O)C(=O)N[C@@H](Cc1ccccc1)C(=O)N[C@H](C(=O)N1CCC[C@H]1C(=O)N[C@H](C(=O)N[C@@H](CC(=O)O)C(=O)N[C@H](C(=O)NCC(=O)N1CCC[C@H]1C(=O)N[C@@H](Cc1ccccc1)C(=O)N[C@@H](C)C(=O)N[C@@H](Cc1ccccc1)C(N)=O)C(C)C)[C@@H](C)O)C(C)C)C(C)C)C(C)C)[C@@H](C)O)C(C)C [compound 850] (Ac-WVTHRLAGLAS[Cit]SGGVVRKNFVPTDVGPFAF-NH2)
